This note sets out measurements from ChEMBL document CHEMBL5528047, “A Potent SOS1 PROTAC Degrader with Synergistic Efficacy in Combination with KRASG12C Inhibitor” (J Med Chem, 2024).

pIC50: −log10 of the molar value. The source made the active and inactive calls. The rule behind the calls is not given here.

The target in series [1] is T1, von Hippel-Lindau disease tumor suppressor/Son of sevenless homolog 1 (Homo sapiens, UniProt Q07889+P40337). The series can be described thus: Protac activity at VHL/SOS1 in human PANC-1 cells assessed as SOS1 degradation at 1 uM by Western blotting analysis relative to control. The format is cell-based. For orientation: Immunoblotting shows a protein as a band on a membrane.
Target sequence in this assay (P40337 whole entry, looked up): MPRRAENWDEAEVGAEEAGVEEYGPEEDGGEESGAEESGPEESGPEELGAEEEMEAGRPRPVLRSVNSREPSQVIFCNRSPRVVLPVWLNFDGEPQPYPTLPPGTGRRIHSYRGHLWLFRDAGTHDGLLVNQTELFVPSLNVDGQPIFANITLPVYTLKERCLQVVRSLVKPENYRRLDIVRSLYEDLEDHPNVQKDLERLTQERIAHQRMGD
Target sequence in this assay (Q07889 whole entry, looked up): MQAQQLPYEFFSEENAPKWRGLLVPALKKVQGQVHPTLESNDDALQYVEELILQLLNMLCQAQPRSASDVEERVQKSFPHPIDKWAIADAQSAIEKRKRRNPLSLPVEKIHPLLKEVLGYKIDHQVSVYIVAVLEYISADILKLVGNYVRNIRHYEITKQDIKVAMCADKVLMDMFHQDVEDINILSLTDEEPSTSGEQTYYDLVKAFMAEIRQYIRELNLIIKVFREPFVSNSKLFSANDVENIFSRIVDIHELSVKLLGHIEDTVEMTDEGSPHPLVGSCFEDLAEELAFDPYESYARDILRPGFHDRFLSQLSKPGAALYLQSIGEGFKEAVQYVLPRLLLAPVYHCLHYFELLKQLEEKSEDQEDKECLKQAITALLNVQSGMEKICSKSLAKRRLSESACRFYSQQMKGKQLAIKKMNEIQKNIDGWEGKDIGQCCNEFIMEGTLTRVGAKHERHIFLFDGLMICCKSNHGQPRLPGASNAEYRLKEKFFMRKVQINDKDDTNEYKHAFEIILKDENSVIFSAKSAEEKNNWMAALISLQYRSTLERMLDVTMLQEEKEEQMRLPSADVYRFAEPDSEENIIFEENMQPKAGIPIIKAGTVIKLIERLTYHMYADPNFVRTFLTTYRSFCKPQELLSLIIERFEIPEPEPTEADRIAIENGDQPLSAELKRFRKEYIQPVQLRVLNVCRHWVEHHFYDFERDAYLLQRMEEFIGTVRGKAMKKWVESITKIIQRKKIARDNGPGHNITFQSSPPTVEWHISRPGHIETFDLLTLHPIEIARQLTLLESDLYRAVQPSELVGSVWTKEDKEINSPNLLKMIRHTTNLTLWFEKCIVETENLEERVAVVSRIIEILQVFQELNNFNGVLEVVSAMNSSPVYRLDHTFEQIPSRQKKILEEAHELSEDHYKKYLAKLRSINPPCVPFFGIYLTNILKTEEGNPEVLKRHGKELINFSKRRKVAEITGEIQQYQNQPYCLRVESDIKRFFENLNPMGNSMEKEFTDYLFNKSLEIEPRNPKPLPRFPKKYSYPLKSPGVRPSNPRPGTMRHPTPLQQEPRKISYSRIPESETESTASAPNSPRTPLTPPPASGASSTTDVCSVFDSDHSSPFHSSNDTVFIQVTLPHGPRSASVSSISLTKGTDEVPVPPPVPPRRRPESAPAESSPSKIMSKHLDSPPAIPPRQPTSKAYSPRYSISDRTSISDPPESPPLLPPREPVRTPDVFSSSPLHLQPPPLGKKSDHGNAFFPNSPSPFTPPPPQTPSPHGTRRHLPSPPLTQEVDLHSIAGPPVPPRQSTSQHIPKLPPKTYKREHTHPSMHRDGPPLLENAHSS

Series [2] has as its target T1, von Hippel-Lindau disease tumor suppressor/Son of sevenless homolog 1. The series can be described thus: Protac activity at VHL/SOS1 in human PANC-1 cells assessed as SOS1 degradation at 10 uM by Western blotting analysis relative to control. The series is classed as cell-based.
Target sequence in this assay (P40337 whole entry, looked up): as the sequence (P40337 whole entry, looked up) above
Target sequence in this assay (Q07889 whole entry, looked up): as the sequence (Q07889 whole entry, looked up) above
Series [3] has the same target. The series can be described thus: Protac activity at VHL/SOS1 in human K562 cells assessed as SOS1 degradation at 1 uM by Western blotting analysis relative to control. The format is cell-based.
Target sequence in this assay (P40337 whole entry, looked up): as the sequence (P40337 whole entry, looked up) above
Target sequence in this assay (Q07889 whole entry, looked up): as the sequence (Q07889 whole entry, looked up) above
The target is the same in series [4]. The series can be described thus: Protac activity at VHL/SOS1 in human K562 cells assessed as SOS1 degradation at 10 uM by Western blotting analysis relative to control. The format is cell-based.
Target sequence in this assay (P40337 whole entry, looked up): as the sequence (P40337 whole entry, looked up) above
Target sequence in this assay (Q07889 whole entry, looked up): as the sequence (Q07889 whole entry, looked up) above
The target is the same in series [5]. The series can be described thus: Protac activity at VHL/SOS1 in human K562 cells assessed as SOS1 degradation incubated for 24 hrs by Western blotting analysis. The series is classed as cell-based.
Series [6] shares this target. The series can be described thus: Protac activity at VHL/SOS1 in human PANC-1 cells assessed as SOS1 degradation incubated for 24 hrs by Western blotting analysis. The format is cell-based.
Series [7] shares this target. The series can be described thus: Protac activity at VHL/SOS1 in human MIA PaCa-2 cells assessed as SOS1 degradation incubated for 24 hrs by Western blotting analysis. The format is cell-based.
Series [8] has the same target. The series can be described thus: Protac activity at VHL/SOS1 in human NCI-H358 cells assessed as SOS1 degradation incubated for 24 hrs by Western blotting analysis. The format is cell-based.
The test system of a further series is K562. The series can be described thus: Antiproliferative activity against human K562 cells incubated for 72 hrs by CCK8 assay. The series is classed as functional, cell-based. Particulars: K562, 72 h. On the technique in general: Tetrazolium assays rely on reduction of a dye to a coloured formazan, in cell work by metabolically active cells.
Series [9] relates to MIA PaCa-2. The series can be described thus: Antiproliferative activity against human MIA PaCa-2 cells incubated for 72 hrs by CCK8 assay. The format is functional, cell-based. Particulars: MIA PaCa-2, 72 h.
The test system of series [10] is MIA PaCa-2. The series can be described thus: Inhibition of ERK phosphorylation in human MIA PaCa-2 cells at 300 nM after 24 hrs. The format is cell-based.
The test system of series [11] is NCI-H358. The series can be described thus: Inhibition of ERK phosphorylation in human NCI-H358 cells at 300 nM after 24 hrs. The series is classed as cell-based.
The test system of series [12] is MIA PaCa-2. The series can be described thus: Upregulation of SOS1 protein in human MIA PaCa-2 cells. The series is classed as functional, cell-based.
The subject of series [13] is NCI-H358. The series can be described thus: Upregulation of SOS1 protein in human NCI-H358 cells. The series is classed as functional, cell-based.
Series [14] can be described thus: Stability in human MIA PaCa-2 cells assessed as compound remaining at 0.2 mM after 72 hrs by HPLC analysis. The series is classed as ADME, cell-based. Particulars: read-out: Stability.
A short description of series [15]: Stability in human NCI-H358 cells assessed as compound remaining at 0.2 mM after 72 hrs by HPLC analysis. Particulars: read-out: Stability. The format is ADME, cell-based.
Series [16] deals with MIA PaCa-2. The series can be described thus: Inhibition of RAS pathway in SOS1 knockout human MIA PaCa-2 cells at 100 nM. The series is classed as cell-based.
Series [17] deals with NCI-H358. The series can be described thus: Inhibition of RAS pathway in SOS1 knockout human NCI-H358 cells at 100 nM. The series is classed as cell-based.
The test system of series [18] is MIA PaCa-2. The series can be described thus: Inhibition of ERK phosphorylation in human MIA PaCa-2 cells at 100 nM after 24 to 72 hrs in presence of BI3406 by Western blotting analysis. The format is cell-based. Particulars: time 24-72 hrs.
In series [19] the test system is NCI-H358. The series can be described thus: Antiproliferative activity against human NCI-H358 cells incubated for 6 days by CCK8 assay. The series is classed as functional, cell-based. Particulars: NCI-H358, 144 h.
The subject of series [20] is MIA PaCa-2. The series can be described thus: Antiproliferative activity against human MIA PaCa-2 cells incubated for 6 days by CCK8 assay. The format is functional, cell-based. Particulars: MIA PaCa-2, 144 h.
Series [21] has as its system SW837. The series can be described thus: Antiproliferative activity against human SW837 cells incubated for 6 days by CCK8 assay. The series is classed as functional, cell-based. Particulars: SW837, 144 h.
For series [22], the system named is NCI-H358. The series can be described thus: Antiproliferative activity against human NCI-H358 cells incubated for 6 days in presence of 1 uM (2S,4R)-1-((S)-2-(5-((4-(((R)-1-(3-amino-5-(trifluoromethyl)phenyl)ethyl)amino)-7-methoxy-2-methylquinazolin-6-yl)oxy)pentanamido)-3,3-dimethylbutanoyl)-4-hydroxy-N-(4-(4-methylthiazol-5-yl)benzyl)pyrrolidine-2-carboxamide by CCK8 assay. The format is functional, cell-based. Particulars: NCI-H358, 144 h.

Series [23] relates to MIA PaCa-2. The series can be described thus: Antiproliferative activity against human MIA PaCa-2 cells incubated for 6 days in presence of 1 uM (2S,4R)-1-((S)-2-(5-((4-(((R)-1-(3-amino-5-(trifluoromethyl)phenyl)ethyl)amino)-7-methoxy-2-methylquinazolin-6-yl)oxy)pentanamido)-3,3-dimethylbutanoyl)-4-hydroxy-N-(4-(4-methylthiazol-5-yl)benzyl)pyrrolidine-2-carboxamide by CCK8 assay. Particulars: MIA PaCa-2, 144 h. The format is functional, cell-based.

The test system of series [24] is SW837. The series can be described thus: Antiproliferative activity against human SW837 cells incubated for 6 days in presence of 1 uM (2S,4R)-1-((S)-2-(5-((4-(((R)-1-(3-amino-5-(trifluoromethyl)phenyl)ethyl)amino)-7-methoxy-2-methylquinazolin-6-yl)oxy)pentanamido)-3,3-dimethylbutanoyl)-4-hydroxy-N-(4-(4-methylthiazol-5-yl)benzyl)pyrrolidine-2-carboxamide by CCK8 assay. The format is functional, cell-based. Particulars: SW837, 144 h.

Series [25] concerns NCI-H358. The series can be described thus: Antiproliferative activity against human NCI-H358 cells incubated for 6 days in presence of 10 uM (2S,4R)-1-((S)-2-(5-((4-(((R)-1-(3-amino-5-(trifluoromethyl)phenyl)ethyl)amino)-7-methoxy-2-methylquinazolin-6-yl)oxy)pentanamido)-3,3-dimethylbutanoyl)-4-hydroxy-N-(4-(4-methylthiazol-5-yl)benzyl)pyrrolidine-2-carboxamide by CCK8 assay. The series is classed as functional, cell-based. Particulars: NCI-H358, 144 h.

The test system of series [26] is MIA PaCa-2. The series can be described thus: Antiproliferative activity against human MIA PaCa-2 cells incubated for 6 days in presence of 10 uM (2S,4R)-1-((S)-2-(5-((4-(((R)-1-(3-amino-5-(trifluoromethyl)phenyl)ethyl)amino)-7-methoxy-2-methylquinazolin-6-yl)oxy)pentanamido)-3,3-dimethylbutanoyl)-4-hydroxy-N-(4-(4-methylthiazol-5-yl)benzyl)pyrrolidine-2-carboxamide by CCK8 assay. The series is classed as functional, cell-based. Particulars: MIA PaCa-2, 144 h.

In series [27] the test system is SW837. The series can be described thus: Antiproliferative activity against human SW837 cells incubated for 6 days in presence of 10 uM (2S,4R)-1-((S)-2-(5-((4-(((R)-1-(3-amino-5-(trifluoromethyl)phenyl)ethyl)amino)-7-methoxy-2-methylquinazolin-6-yl)oxy)pentanamido)-3,3-dimethylbutanoyl)-4-hydroxy-N-(4-(4-methylthiazol-5-yl)benzyl)pyrrolidine-2-carboxamide by CCK8 assay. The series is classed as functional, cell-based. Particulars: SW837, 144 h.

Series [28] relates to NCI-H358. The series can be described thus: Antitumor activity against human NCI-H358 cells xenografted in BALB/c mouse assessed as tumor growth inhibition at 10 mg/kg, ip administered once daily for 28 days. Particulars: NCI-H358, 672 h, time 28 day, read-out: TGI. The series is classed as functional. On the technique in general: In xenograft studies the graft and the host belong to different species.

`COc1cc2nc(C)nc(N[C@H](C)c3cc(-c4ccccc4CNCCCCCCC(=O)N[C@H](C(=O)N4C[C@H](O)C[C@H]4C(=O)NCc4ccc(-c5scnc5C)cc4)C(C)(C)C)cs3)c2cc1OC`: the Activity in series [1] is 44%; in [2], 75.1%; in [3], 18.9%; in series [4], 80.1%; in series [5] it was “Dose-Dependent Effect”; in [6] it was “Dose-Dependent Effect”. For the same molecule, the Activity result in series [7] and in [8] was “Dose-Dependent Effect” each time. For the same molecule, the DC50 in series [5] worked out at 776 nM; in series [6] it was 701 nM; in [7] it was 870 nM; in series [8], 910 nM.

Consider `COc1cc2nc(C)nc(N[C@H](C)c3cc(N)cc(C(F)(F)F)c3)c2cc1O[C@H]1CCOC1`, for which the pIC50 was 5.85 in the series on K562 and 7.54 in the series with MIA PaCa-2 [9].

Turning to `C=CC(=O)N1CCN(c2nc(=O)n(-c3c(C)ccnc3C(C)C)c3nc(-c4c(O)cccc4F)c(F)cc23)[C@@H](C)C1` [SOTORASIB], the inhibition result with MIA PaCa-2 [10], in the series with NCI-H358 [11], with MIA PaCa-2 [16], in the series with NCI-H358 [17] and in the series with MIA PaCa-2 [18] was “Active” in each case. For the same molecule, the result in the series with MIA PaCa-2 [12] and in the series with NCI-H358 [13] was Active. In addition, the remaining at 72 h, 200 µM in series [14] and in [15] was over 70% in each case. Moreover, the pIC50 was 8.00 in the series with NCI-H358 [19]; 7.43 in the series on MIA PaCa-2 [20]; 8.05 in the series with SW837 [21]; 8.40 in the series on NCI-H358 [22]; 7.89 with MIA PaCa-2 [23]; 8.52 with SW837 [24]. Besides, the pIC50 with NCI-H358 [25] was 9.00; in the series on MIA PaCa-2 [26], 8.22; with SW837 [27], 8.70. For the same molecule, the inhibition in vivo at 10 mg/kg in the series on NCI-H358 [28] worked out at 34.9%.

Usually DC50 stands for the midpoint of the concentration-degradation curve. A word on the pIC50: it is the IC50 on a negative log10 scale, so that one unit is a factor of ten.
